{"source": "patent US20090305239A1", "about": "“Methods and compositions for determing a level of biologically active serum paraoxonase” (priority 2005, published 2009)", "key": {"[1]": {"test_system": "PON3", "test": "Lactonase activity of PON3 in purified enzyme samples and crude cell lysates", "type": "biochemical", "conditions": "data not shown"}, "[2]": {"test_system": "E. coli cells expressing recombinant PON1 (rePON1)", "test": "Detection of PON1 lactonase activity in living cells by FACS in w/o/w emulsions with TBBL and CPM", "type": "cell-based", "conditions": "TBBL with thiol-detecting dye CPM, emission at 530 nm, single E. coli cells in w/o/w emulsion", "source_text": "Shown are representative histograms of the fluorescent emission at 530 nm (the thiol-CPM adduct) for single cells expressing GFP and PON1 (white), and control cells with GFP only (grey).\nPON1 activity was also detected in living cells, using FACS (fluorescence-activated cell sorter) and emulsion droplets that compartmentalize the cells together with the products of the enzymatic activity^[15, 16]. […] The w/o emulsion was then re-emulsified, to generate the w/o/w double emulsion with a continuous water phase that is amenable to FACS^[15]. The FACS triggering threshold was set for the emission of GFP, and an appropriate gate was chosen corresponding to the level of emission of single E. coli cells^[16]. […] A clear difference (>20-fold in mean fluorescence) was observed relative to cells bearing no rePON1"}, "[3]": {"test_system": "recombinant PON1 variant rePON1-G2E6", "conditions": "substrate hydrolysis by rePON1; 50 mM Tris pH 8.0, 1 mM CaCl2, 50 mM NaCl; DTNB detection", "experimental": "The kinetic parameters of enzymatic hydrolysis of the three TXBLs by PON1 were determined by detecting the released thiol moiety with DTNB.\nKinetics were performed with recombinant PON1 variant rePON1-G2E6 expressed in fusion with a thioredoxin and 6×His tag, and purified as described^[19].\nKinetic measurements with DTNB—The rates of enzymatic hydrolyses of the thioalkyl-substituted lactones were determined in 50 mM Tris pH 8.0 with 1 mM CaCl2 and 50 mM NaCl (activity buffer). The enzyme stocks were kept in activity buffer containing 0.1% tergitol, and the enzyme concentration used was 8.375×10^−9 M. Stocks of 100-400 mM of substrates were prepared in acetonitrile and diluted with the reaction buffer immediately before initializing the reaction. […] The substrate concentrations were varied in the range of 0.3×KM up to (2-3)×KM. The co-solvent percentage was kept at 1% in all reactions. The DTNB dye (Ellman's reagent, 5′,5-dithio bis(2-nitrobenzoic acid) was used from 100 mM stock in DMSO, at a final concentration of 0.5 mM. An ε412 nm=7000 OD/M was used to calculate the activity. Product formation was monitored spectrophotometrically at 412 nm in 200 μl reaction volumes, using 96-well plates, on a microtiter plate reader (PowerWave HT™ Microplate Scanning Spectrophotometer; optical length ˜0.5 cm). Initial velocities (v0) were determined at eight different concentrations for each substrate. v0 values were corrected for the background rate of spontaneous hydrolysis in the absence of enzyme. Kinetic parameters (kcat, KM, kcat/KM) were obtained by fitting the data to the Michaelis-Menten equation [v0=kcat[E]0[S]0/([S]0+KM)], using the program Kaleidagraph 5.0."}, "[4]": {"test_system": "rePON1", "conditions": "rePON1 with 5-alkyl butyrolactones, taken from Ref. 4; cited from earlier work"}, "[5]": {"target": "T1, PON1 in human sera (Homo sapiens, UniProt P27169)", "T1 sequence (P27169 whole entry)": "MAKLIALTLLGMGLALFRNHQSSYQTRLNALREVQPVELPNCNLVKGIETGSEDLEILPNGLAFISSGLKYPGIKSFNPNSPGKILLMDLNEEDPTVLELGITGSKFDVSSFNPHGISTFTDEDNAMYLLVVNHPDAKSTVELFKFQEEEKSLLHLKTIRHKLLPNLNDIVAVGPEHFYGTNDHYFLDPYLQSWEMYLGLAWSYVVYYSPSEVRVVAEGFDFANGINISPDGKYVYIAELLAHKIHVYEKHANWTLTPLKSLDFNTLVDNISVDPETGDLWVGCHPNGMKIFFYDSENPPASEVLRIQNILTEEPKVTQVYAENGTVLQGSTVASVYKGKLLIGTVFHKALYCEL", "test": "Serum lactonase activity with TBBL (DTNB, 412 nm), with and without inhibitors", "type": "biochemical", "experimental": "(§1) Hydrolysis of phenyl acetate was monitored directly by absorbance at 270 nm (FIG. 2b).\n(§2) The reaction mixtures of phenyl acetate contained 1 mM phenyl acetate from 500 mM stock in methanol. All the reaction mixtures contained final 1% DMSO. […] The serum was incubated with the inhibitors for 5-10 minutes before the initiation of the reaction.\n(§3) In parallel, we the PON1 activity was determined with phenyl acetate, which is routinely used as a probe for PON1 levels in the serum."}, "[6]": {"target": "T1, PON1 in human sera", "conditions": "samples #1 and #2", "experimental": "as §1, §2, §3"}, "[7]": {"target": "T1, PON1 in human sera", "test": "biochemical", "conditions": "read-out: Serum activity with 1 mM phenyl acetate, 100 μM HQ (% of uninhibited activity), human serum 1:400 pre-incubated with 100 μM HQ; samples #1 and #2", "experimental": "as §1, §2, §3"}, "[8]": {"conditions": "human serum 1:400 pre-incubated with 5 mM EDTA"}}, "note": "Where “and” joins values, the source holds several entries; their conditions need not be identical. Equal entries are not always repeated.", "data": [{"molecule": "CCCCSC1CCC(=O)O1", "note": "(stereo not drawn) [TBBL, 5-butylsulfanyl-dihydro-furan-2-one]", "values": [{"measurement": "lactonase activity of PON3 assayed with the substrate", "setting": "[1]", "value": "could be assayed"}, {"measurement": "difference in mean fluorescence relative to cells bearing no rePON1", "setting": "[2]", "value": "> 20", "unit": "fold"}, {"measurement": "Km", "setting": "[3]", "value": "270 ± 40", "unit": "µM"}, {"measurement": "kcat", "setting": "[3]", "value": "116 ± 4", "unit": "s⁻¹"}]}, {"molecule": "CCSC1CCC(=O)O1", "note": "(stereo not drawn) [TEBL, 5-ethylsulfanyl-dihydro-furan-2-one]", "values": [{"measurement": "lactonase activity of PON3 assayed with the substrate", "setting": "[1]", "value": "could be assayed"}, {"measurement": "Km", "setting": "[3]", "value": "360 ± 50", "unit": "µM"}, {"measurement": "kcat", "setting": "[3]", "value": "161 ± 10", "unit": "s⁻¹"}]}, {"molecule": "CCCCCCCC1CCC(=O)O1", "note": "(stereo not drawn) [γ-undecanoic lactone]", "values": [{"measurement": "Km", "setting": "[4]", "value": "600 ± 70", "unit": "µM"}, {"measurement": "kcat", "setting": "[4]", "value": "62 ± 2", "unit": "s⁻¹"}]}, {"molecule": "CCCCCC1CCC(=O)O1", "note": "(stereo not drawn) [γ-nonanoic lactone]", "values": [{"measurement": "Km", "setting": "[4]", "value": "390 ± 30", "unit": "µM"}, {"measurement": "kcat", "setting": "[4]", "value": "31 ± 2", "unit": "s⁻¹"}]}, {"molecule": "O=C(O)CN(CCN(CC(=O)O)CC(=O)O)CC(=O)O", "note": "[EDTA]", "values": [{"measurement": "Serum activity with 0.5 mM TBBL, 5 mM EDTA", "setting": "[5]; human serum 1:400 pre-incubated with 5 mM EDTA, samples #1 and #2", "value": "0.04 ± 0.01 μM product/min and 0.06 ± 0.01 μM product/min"}, {"measurement": "inhibition rates by EDTA", "setting": "[5]; serum lactonase (TBBL) and aryl esterase (phenyl acetate) activities, 5 mM EDTA", "value": "> 99", "unit": "%"}, {"measurement": "Serum activity with 1 mM phenyl acetate, 5 mM EDTA", "setting": "[6]; [8]", "value": "~0", "unit": "μM product/min"}, {"measurement": "Serum activity with 1 mM phenyl acetate, 5 mM EDTA (% of uninhibited activity)", "setting": "[6]; [8]", "value": "(0%)"}]}, {"molecule": "Oc1ccc2ccccc2n1", "note": "[HQ, 2-hydroxyquinoline]", "values": [{"measurement": "Serum activity with 0.5 mM TBBL, 100 μM HQ", "setting": "[5]; human serum 1:400 pre-incubated with 100 μM HQ, samples #1 and #2", "value": "2.09 ± 0.04 μM product/min and 1.80 ± 0.01 μM product/min"}, {"measurement": "activity at 100 µM", "setting": "[5]; read-out: Serum activity with 0.5 mM TBBL, 100 μM HQ (% of uninhibited activity), human serum 1:400 pre-incubated with 100 μM HQ, samples #1 and #2", "value": 8.6, "unit": "%"}, {"measurement": "Serum activity with 1 mM phenyl acetate, 100 μM HQ", "setting": "[6]; human serum 1:400 pre-incubated with 100 μM HQ", "value": "5.9 ± 0.4 μM product/min and 3.9 ± 0.3 μM product/min"}, {"measurement": "activity at 100 µM", "setting": "[7]", "value": 4.9, "unit": "%"}]}, {"molecule": "CCCCCCSC1CCC(=O)O1", "note": "(stereo not drawn) [THBL, 5-hexylsulfanyl-dihydro-furan-2-one]", "values": [{"measurement": "Km", "setting": "[3]", "value": "350 ± 30", "unit": "µM"}, {"measurement": "kcat", "setting": "[3]", "value": "52.4 ± 2.6", "unit": "s⁻¹"}]}]}
